Data reported in patent US8115033B2, “3-(4-hydroxy-3-methoxyphenyl)-1-(4-hydroxyphenyl)-1-propanone and use thereof as an antimicrobial active ingredient” (Symrise AG, priority 2007, dated 2012).
≈ marks a conversion by molar mass, not a printed value.

Columns and labels:
[1] = system: Staphylococcus epidermidis (ATCC 12228); assay: quantitative suspension test; type: cell-based
[2] = system: Brevibacterium epidermidis (ATCC 35514); assay: quantitative suspension test; type: cell-based
[3] = system: Brevibacterium epidermidis (ATCC 35514); assay: turbidimetric growth-curve MIC determination; type: cell-based; conditions: turbidimetry 620 nm, 16 h, 37° C.
From the text: (§1) The recognition that 3-(4-hydroxy-3-methoxyphenyl)-1-(4-hydroxyphenyl)-1-propanone of the formula 1 is very particularly suitable for combating microorganisms which are responsible for body odor is based on series of investigations relating to the particularly relevant microorganisms Staphylococcus epidermidis, Corynebacterium xerosis and Brevibacterium epidermidis. The antimicrobial action of 3-(4-hydroxy-3-methoxyphenyl)-1-(4-hydroxyphenyl)-1-propanone is here detected with the assistance of a turbidimetric measurement method. Turbidity measurement is used to establish growth curves for the particular microorganism in the presence and absence of an antimicrobial active ingredient. A possible inhibitory action of the test substance used is identified from the profile of the growth curves. Solutions with saline or DMSO for 100% growth are prepared as a negative control. The active substances to be investigated are first diluted in DMSO in reaction vessels. Dilution is carried out in accordance with the concentration range to be tested and corresponds in each case to 100 times the concentration of the subsequent final concentration in the test. Testing is usually begun with a final concentration of 2000 ppm in the test. Growth curves at final concentrations of 1000 ppm, 500 ppm, 250 ppm, 125 ppm, 64 ppm, 32 ppm, 16 ppm and 8 ppm are subsequently determined. The bacterial cultures are then incubated in the presence of the various final concentrations of antimicrobial active ingredient for 16 h (incubation temperature: 37° C.). The absorption values (wavelength 620 nm; measurement interval: 20 minutes) obtained over the 16 hour period of turbidimetric measurement are recorded and exported into the spreadsheet program MS Excel. Means from in each case three parallel batches are calculated and used as the basis for establishing growth curves. The curves of the individual test sample concentrations are compared with those for the negative controls and the MIC value (minimum inhibitory concentration) is determined. […]

[4] = system: Corynebacterium xerosis (DSM 20743); assay: turbidimetric growth-curve MIC determination; type: cell-based; conditions: DSM20743, turbidimetry 620 nm, 16 h, 37° C., read-out: MIC value (complete inhibition of growth)
From the text: as §1

[5] = system: Staphylococcus epidermidis (ATCC 12228); assay: turbidimetric growth-curve MIC determination; type: cell-based; conditions: turbidimetry 620 nm, 16 h, 37° C.
From the text: as §1

[6] = system: microorganisms which cause body odor; assay: in vivo sniffing tests on human test subjects suffering from severe body odor; conditions: human test subjects with severe body odor
[7] = investigations into chemical properties (stability); type: physicochemical
From the text: In addition, in pure form, the compound according to the invention of the formula 1 is a white solid which forms a colorless solution in (cosmetic and/or pharmaceutical) carriers; furthermore, no discoloration was observed after incorporation of the compound according to the invention of the formula 1 in cosmetic products, in medical devices and in pharmaceutical preparations.

[8] = system: Corynebacterium xerosis (DSM 20743); assay: quantitative suspension test; type: cell-based

MIC [4]: 500 µg/mL (≈ 1840 µM)
temperature stability [7]: elevated temperature stability
SMILES: COc1cc(CCC(=O)c2ccc(O)cc2)ccc1O [3-(4-hydroxy-3-methoxyphenyl)-1-(4-hydroxyphenyl)-1-propanone]
antimicrobial activity [1]: confirm the antimicrobial activity
antimicrobial activity [2]: confirm the antimicrobial activity
concentration giving inhibition of the growth [3]: below 0.1 wt. %
concentration giving inhibition of the growth [5]: below 0.1 wt. %
antimicrobial activity (body odor) [6]: confirm the antimicrobial activity
stability over pH values ([7]; wide range of pH values): high stability over a wide range of pH values
antimicrobial activity [8]: confirm the antimicrobial activity
